According to patent US12036214B2, “Solid dispersion comprising an anticancer compound for improved solubility and efficacy” (COUNCIL OF SCIENTIFIC AND INDUSTRIAL RESEARCH, priority 2018, dated 2024):
“And” between values parts separate entries of the source, which are not always exact repeats. Equal values may be shown once.

Assays:
[1] = tested on: Ehrlich Ascites Carcinoma (EAC) cells; assay: Ehrlich solid tumor model; assay type: in vivo
Procedure: Novel oral solid dispersion containing anticancer compound of formula A was tested for in-vivo anticancer activity using Ehrlich Solid Tumor model. In this model, after oral administration of formulation VKB-SD75 and the compound of formula A in male Swiss mice up to 9 days, the % tumor growth inhibition was calculated on 13th day.
The in-vivo efficacy testing of best identified solid dispersion formulation VKB-SD75 was done using Ehrlich solid tumor model, parallelly with the compound of Formula A. Ehrlich Ascites Carcinoma (EAC) cells were collected from the peritoneal cavity of the Swiss mice weighing 18-23 g, harboring 8-10 days old ascetic tumor. 1×10^7 EAC cells were injected intramuscularly in the right thigh of Swiss male mice selected for the experiment on day 0. The next day, animals were randomized and divided into 8 groups. Seven treatment groups contained 7 animals each and one control groups contained 10 animals each. Treatment group 1-6 were treated with the compound of formula A and solid dispersion formulation at different dose strength once daily from day 1-9. The seventh treatment group was treated with 5-fluorouracil (22 mg/kg, i.p.) from day 1-9 and it served as positive control. The control group was similarly administered normal saline (0.2 ml, i.p) from day 1-9. On day 9 & 13, tumor-bearing thigh of each animal was shaved, and longest and shortest diameters of the tumor were measured with the help of vernier caliper. The percent tumor growth inhibition was calculated on day 13 by comparing the average values of treated groups with that of the control group. Tumor growth in saline-treated control animals was taken to be 100%.

colon xenograft = settings: 50 mg/kg, po; cited from earlier work
MIAPaCa-2 = settings: read-out: MIAPaCa-2 cell growth GI50; cited from earlier work
leukemia xenograft = settings: 50 mg/kg, po; cited from earlier work
pancreatic xenograft = settings: 50 mg/kg, po; cited from earlier work
[2] = pH dependent stability in buffers, SGF, SIF and plasma; assay type: physicochemical; settings: pH 1.2, pH 4.0, pH 6.8, PBS pH 7.4, SGF (pH 1.2), SIF (pH 6.8) and plasma, upto 24 hrs
Procedure: The stability of compound was performed in pH 1.2 buffer, pH 4.0 buffer, phosphate buffer pH 6.8, phosphate buffered saline pH 7.4, SGF (pH 1.2), SIF (pH 6.8) and plasma upto 24 hrs. The % compound hydrolyzed or degraded was determined by HPLC analysis.

[3] = tested on: cancer cells over normal fibroblast-cells; settings: cited from earlier work
physchem = settings: 37 °C, water, thermodynamic from solid
[4] = Water solubility by shake flask method with HPLC analysis; assay type: physicochemical; settings: distilled water, 25 °C, thermodynamic from solid
Procedure: (§1) The water solubility of prepared solid dispersions along with compound of Formula A was determined using shake flask method, wherein the analysis was done by HPLC. The in-vitro dissolution studies were performed using U.S.P. type-2 (paddle type) dissolution apparatus at a speed of 50 rpm, and temperature of 37° C.±0.5, using 250 ml of dissolution media (0.25% SLS containing water and phosphate buffer pH 6.8 up to 6 h). Further, the solid dispersions were characterized using different analytical techniques such as DSC, FTIR, XRD, etc.
Solid dispersions were formulated as different formulations containing anticancer compound (formula A) along with different polymers in different proportions as shown in Table 1 and 2. First the anticancer compound and various excipients/hydrophilic polymers were weighed accurately. Both the compound and polymers were dissolved in methanol. Those polymers which were insoluble in methanol were dissolved in water. […] After complete drying, the water solubility of compound was determined by shake-flask method followed by […] analysis. […]
The water solubility of formulations prepared in Example 4 and compound of Formula A was determined in each well of plate containing different solid dispersion formulations. […] The supernatant was then analyzed by RP-HPLC.

[5] = In-vitro dissolution, USP type-2 paddle apparatus, sink conditions; assay type: physicochemical; settings: 50 rpm, 37° C.
Procedure: as §1
The dissolution profile of compound and solid dispersion formulation VKB-SD75 was studied in sink conditions. For the sink condition, 0.25% SLS was added to dissolution media and dissolution was studied in water and pH 6.8 phosphate buffer (Ilevbare, G. A. et al., Pharmaceutical amorphous solid dispersions, Eds. John Wiley & Sons 2015, pp. 218). The dissolution studies were carried out using Lab-India Dissolution Tester (Model: DS 8000; apparatus 2—Paddle Apparatus) at 50 rpm and 37° C.±0.5 and dissolution media volume was 250 mL. Formulation equivalent to 10 mg of compound was added to each dissolution vessel in triplicate and 1 ml sample was taken and replaced by fresh dissolution media at different time points (0.25, 0.50, 1, 2, 4, 6 hrs).
The percentage drug dissolved was determined by HPLC analysis. […]

Molt-4 = settings: read-out: Molt-4 cell growth GI50; cited from earlier work
[6] = male, BALB/c, mouse, in vivo, po, 50 mg/kg
Procedure: (§2) The vehicle used for PK study was 1% v/v Tween 80 in 0.5% sodium CMC in water. Blood samples were collected (n=3/time point) at 0.083 (IV only), 0.25, 0.5, 1, 2, 4, 8 and 24 h, post-dose. At each time point about 200 μL of blood was collected by jugular vein into a labeled microfuge tube containing 200 mM K2EDTA solution (20 μL per mL of blood) and equivalent volume of heparinized saline was replaced following sample collection. The blood samples were processed to obtain the plasma samples within 30 min of scheduled sampling time. All plasma samples were stored below −60° C. until bioanalysis. […] The pharmacokinetic parameters of compound of formula A were calculated using the non-compartmental analysis tool of validated Phoenix® WinNonlin® software (version 6.3).

CYP/efflux-pump = settings: cited from earlier work
Lipophilicity (log P) = assay type: physicochemical
in vivo = settings: male, BALB/c, mouse, po, 50 mg/kg
Procedure: as §2

For O=c1[nH]cc(F)c(=O)[nH]1 [Formulation 5-FU, 5-fluorouracil, reference compound], the Mortality ([1]; 22 mg/kg, i/p) was 0/7 and the “% Tumor growth inhibition on 13th day” value ([1]; 22 mg/kg, i/p, day 1-9) was 49.44 ± 6.32%.
In the case of CN1CC[C@H](c2c(O)cc(O)c3c(=O)cc(/C=C/c4c(Cl)cccc4Cl)oc23)[C@H](O)C1 [Compound of formula A, (1′R,2′S)-2-(2,6-dichlorostyryl)-5,7-dihydroxy-8-(3-hydroxy-1-methylpiperidin-4-yl)-4H-chromen-4-one], the “in-vivo efficacy in colon xenograft” value (colon xenograft) is listed as “showed in-vivo efficacy”, the GI50 (MIAPaCa-2) is listed as under 1 µM and the “in-vivo efficacy in leukemia xenograft” value (leukemia xenograft) is listed as “showed in-vivo efficacy”. For the same compound, the “in-vivo efficacy in pancreatic xenograft” value (pancreatic xenograft) was “showed in-vivo efficacy”, the “% drug remaining” value [2] was over 95% and the “selectivity for cancer cells over normal fibroblast-cells” value [3] was “highly selective”. For the same compound, the solubility at 120 min (physchem) was 10 to 20 µg/mL, the solubility at 24 h [4] was 10 to 20 µg/mL and the “% drug dissolution” value ([5]; phosphate buffer pH 6.8, 0.25% SLS, after 1 h) was 63%. The “% drug dissolved” value ([5]; water containing 0.25% SLS, after 2 h) was 49.15%, the GI50 (Molt-4) was under 1 µM and the AUClast [6] was 2570 ng·h/mL. For the same compound, the Cmax [6] was 656 ng/mL, the Mortality ([1]; 50 mg/kg p.o) was 0/7 and the “% Tumor growth inhibition on 13th day” value ([1]; 50 mg/kg p.o, once daily day 1-9) was 24.75% and 24.75 ± 3.52%. The Mortality ([1]; 75 mg/kg p.o.) was 0/7, the “% Tumor growth inhibition on 13th day” value ([1]; 75 mg/kg p.o., once daily day 1-9) was 30.92% and 30% and 30.92 ± 5.32% and the Mortality ([1]; 100 mg/kg p.o.) was 0/7. For the same compound, the “% Tumor growth inhibition on 13th day” value ([1]; 100 mg/kg p.o., once daily day 1-9) was 38.63 ± 3.65%, the CYP/efflux-pump liability (CYP/efflux-pump) was “did not have CYP/efflux-pump liability” and the “log P” value (Lipophilicity (log P)) was 3.10. The Tmax (in vivo) was 1 h.
